According to US9850273B2, “Combination of estrogens plus antiprogestins with significant partial agonistic effect as an effective treatment of menopausal symptoms and for prevention of the occurrence of breast cancer” (Evestra, Inc., priority 2014, dated 2017):
Like-named read-outs stand apart in the source and are kept apart here.

Assays:
progesterone receptor [1] = target: T1, progesterone receptor (Homo sapiens, UniProt P06401); test: PR transactivation assay, antagonistic activity (PR luciferase reporter); type: cell-based; settings: for Ratio of IC50's: PR agonism / PR antagonism
T1 sequence (P06401 165-933 limits assumed): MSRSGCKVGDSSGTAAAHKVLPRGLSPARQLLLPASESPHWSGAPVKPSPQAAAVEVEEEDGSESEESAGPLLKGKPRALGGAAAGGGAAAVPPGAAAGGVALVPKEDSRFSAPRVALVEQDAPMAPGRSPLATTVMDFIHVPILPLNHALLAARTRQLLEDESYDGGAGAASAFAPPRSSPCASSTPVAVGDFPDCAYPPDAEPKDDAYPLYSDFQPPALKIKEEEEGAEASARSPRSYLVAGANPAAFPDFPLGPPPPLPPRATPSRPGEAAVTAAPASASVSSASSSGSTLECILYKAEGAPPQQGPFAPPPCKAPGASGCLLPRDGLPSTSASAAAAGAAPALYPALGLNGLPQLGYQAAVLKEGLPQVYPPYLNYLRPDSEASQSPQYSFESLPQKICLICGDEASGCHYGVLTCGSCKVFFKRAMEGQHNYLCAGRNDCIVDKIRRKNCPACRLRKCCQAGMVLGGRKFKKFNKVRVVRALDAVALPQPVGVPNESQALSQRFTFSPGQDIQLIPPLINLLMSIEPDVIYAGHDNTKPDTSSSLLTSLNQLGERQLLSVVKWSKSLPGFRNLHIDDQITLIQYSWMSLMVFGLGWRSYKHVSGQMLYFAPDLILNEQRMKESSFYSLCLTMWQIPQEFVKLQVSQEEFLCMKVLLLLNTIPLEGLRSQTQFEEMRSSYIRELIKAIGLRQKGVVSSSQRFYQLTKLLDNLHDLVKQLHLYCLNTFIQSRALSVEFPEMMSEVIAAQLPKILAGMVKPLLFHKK
Description: (§1) Transactivation Assay for Progesterone Agonist and Antagonistic Activity (See Table 1).
(§2) Experimental: PR transactivation studies was carried out in human breast cancer (T47D) cells, grown in RPMI medium without phenol red and 5% charcoal stripped fetal bovine serum, transiently transfected with PR luciferase reporter (CCS-6043L signal reporter assay kit, Qiagen). The cells were stimulated R5020 as PR agonist and treated in the presence or absence of the tested compounds for 24 hours.

[2] = system: estradiol-primed immature female rabbits; test: McPhail and anti-McPhail tests in rabbits; type: in vivo, rabbit; settings: for antiprogestational activity (anti-McPhail test): immature female rabbit
Text: The McPhail test in the immature female rabbit is a well-established model to test progestatational and antiprogestational activity [McPhail 1934).

progesterone receptor [3] = target: T2, progesterone receptor (Homo sapiens, UniProt P06401); test: PR transactivation assay, agonistic activity (PR luciferase reporter); type: cell-based; settings: T47D cells; for EC50: stimulant R5020, read-out: EC50
T2 sequence (P06401 679-933 limits assumed): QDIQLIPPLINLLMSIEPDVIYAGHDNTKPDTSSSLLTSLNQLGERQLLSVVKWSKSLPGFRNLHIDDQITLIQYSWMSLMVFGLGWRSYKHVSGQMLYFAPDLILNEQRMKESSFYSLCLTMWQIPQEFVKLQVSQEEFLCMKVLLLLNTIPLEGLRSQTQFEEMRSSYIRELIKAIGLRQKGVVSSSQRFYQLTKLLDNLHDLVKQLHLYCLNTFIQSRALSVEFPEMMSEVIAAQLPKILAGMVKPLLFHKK
Description: as §1
as §2, with “hours. The effect was calculated using dual luciferase assay kit (Promega, WI)) based on RU486 as full antagonist and R5020 as agonist for progesterone receptor.” for “hours.”

guinea pig [4] = test: Guinea pig model (ovulation inhibition, uterine weight, vagina, ovary, classification); type: in vivo; settings: for Classification: guinea pig model; for ER-/PR balance vagina. / Ovary (CL): at max. dose (10.mg/day s.c.); for Ovary (CL): CL = corpora lutea
[5] = system: ovariectomized C57BL/6 mice; test: Uterine weight bioassay in ovariectomized mice; type: in vivo, mouse; settings: combined with E2, 4 weeks
Description: (§3) In order to determine the in vivo estrogenic action of EC313 in uterine weight and benign breast development, we have used standard uterine weight bioassay and mammary gland whole mount analysis in ovariectomized mice. […] Five different measurements were obtained from each whole-mount image. Ductal length (millimeters) was measured by drawing and measuring a straight line caliper from the most distal point of the ductal network to the nipple and end buds were identified as large bulbous profiles located at the termini of ducts. […] The reduced estrogenic effect by the treatment of EC313 was further confirmed by the gene expression studies.
(§4) Whole mounts of mammary glands of overictomized C57BL/6 mice treated with E2, EC313 0.1 and 1.0 mg/kg. Magnification—upper panel—10×, lower panel—20×. B, Uterine weight of mice treated for 4 weeks with E2, EC313 0.1 and 1.0 mg/kg. Data represented are average uterine weight in milligrams±SD (*P<0.001 vs E2-control). C-D, Total duct length and terminal end bud counts in the mammary gland whole mounts after 4 weeks of the treatment with test compounds (*P<0.001 vs E2-control).

guinea pig [6] = settings: in vivo; cited from earlier work
[7] = system: ovariectomized C57BL/6 mice; test: Mammary gland whole mount analysis in ovariectomized mice; type: in vivo, mouse; settings: 0.1 and 1.0 mg/kg with E2, 4 weeks
Description: as §3, §4

[8] = system: ovariectomized C57BL/6 mice; test: Gene expression in mammary glands of ovariectomized mice; type: in vivo, mouse
Description: as §3
Gene expression in mammary glands of ovariectomized C57BL/6 mice treated with E2, EC313 0.1 and 1.0 mg/kg. Columns are average of relative amount (ΔΔCt) of tested mRNA±SD (n=6) (**P<0.01 vs E2-control, *P<0.001 vs E2-control).

[9] = T47D cells, stimulant R5020, read-out: IC50 Average of 2 expts
[10] = Table 2 summary, read-out: PR antagonism (IC50)
[11] = estradiol-primed immature female rabbit

Ratio of IC50's (progesterone receptor [1]) | Antagonist rel to RU486 (%) (progesterone receptor [1]; T47D cells, stimulant R5020) | IC50 (progesterone receptor [1]; [9]) [nM] | IC50 (progesterone receptor [1]; [10]) [nM] | Agonist rel to R5020 (%) (progesterone receptor [3]) | EC50 (progesterone receptor [3]) [nM] | SMILES | Classification (guinea pig [4]) | Uterine Weight at max. dose (10.mg/day s.c.) (guinea pig [4]; guinea pig) | ER-/PR balance vagina. (guinea pig [4]; guinea pig) | Ovary (CL) (guinea pig [4]; guinea pig) | progestational activity (McPhail test) [2, 11] | antiprogestational activity (anti-McPhail test) [2] | ER-/PR balance vagina.: dose at which the dominance is seen (guinea pig [4]; guinea pig) | other results
38.4 | 120 | 0.65 | 0.65 | 1.5 | 21.5 | CC(=O)O[C@]1(C(C)=O)CC[C@H]2[C@@H]3CCC4=CC(=O)CCC4=C3[C@@H](c3ccc(N(C)C)cc3)C[C@@]21C [CDB-2914, reference compound] | blunted PR- | (1.01) | ER-domin. | degenerated |  |  |  | progestational activity (McPhail test) ([2]; dose of 3 mg/animal/day): didn't show any activity at all
30.7 | 300 | 0.7 | 0.7 | 1.4 | 25 | COCC(=O)[C@@]1(OC(C)=O)CC[C@H]2[C@@H]3CCC4=CC(=O)CCC4=C3[C@@H](c3ccc(N(C)C)cc3)C[C@@]21C [CDB-4124, reference compound] | PR-antagonist | 1.41 | ER-domin. | deg. & | did not exhibit any progestational activity | higher antiprogestational activity than RU 486 |  | Ovulation Inhibition (guinea pig [4]; guinea pig): ≦10.0 mg
11.8 | 292.7 | 0.39 | 0.39 | 7.0 | 4.61 | CC(=O)C1[C@H](C)CC2C3CCC4=CC(=O)CCC4=C3[C@@H](c3ccc(-c4cccnc4)cc3)C[C@@]21C (stereo partly drawn) [EC348, 11β-{4′-[3′-pyridinyl)phenyl}-16α-methyl-19-norpregna-4,9-diene-3,20-dione] | mesoprogestin | 1.01 | PR-domin | degenerated |  |  |  | 
81.7 | 160 | 0.625 | 0.63 | 0.73 | 51.5 | C[C@]12C[C@H](c3ccc(-c4cccnc4)cc3)C3=C4CCC(=O)C=C4CCC3C1CCC21OCCC1=C(F)F (stereo partly drawn) [EC-312] | mesoprogestin | 1.03 | PR-domin. | degenerated | active both as a progestin agonist and antagonist | active both as a progestin agonist and antagonist | ≧0.1 mg | progestational activity relative to CDB 2914 ([2]; assumed from McPhail test): more than ten-fold higher
9.4 | 240 | 0.5 | 0.5 | 7.8 | 4.75 | C[C@]12C[C@H](c3ccc(-c4ccoc4)cc3)C3=C4CCC(=O)C=C4CCC3C1CCC21OCCC1=C(F)F (stereo partly drawn) [EC-313] | mesoprogestin | 1.13 | PR-domin. | degenerated | active both as a progestin agonist and antagonist | active both as a progestin agonist and antagonist | ≧0.1 mg | E2 stimulated uterine weight ([5]; 0.1 mg/kg): reduced by two fold; E2 stimulated uterine weight ([5]; 1.0 mg/kg): three fold; Classification (previous findings, Nickisch et al, 2013) (guinea pig [6]): mesoprogestin; ductal branching and terminal end buds in whole mount analysis [7]: dose dependently reduced; PR regulated genes amphiregulin (AREG) and RANKL in mammary glands ([8]; higher dose): significantly inhibited; PR regulated genes amphiregulin (AREG) and RANKL in mammary glands ([8]; lower doses): upregulated in a moderate fashion; E2 regulated genes cyclin D1 and PS2 in mammary glands ([8]; treatment combined with E2): downregulated
5.7 | 120 | 0.95 | 0.95 | 7 | 5.15 | CC[C@@H]1CC2C3CCC4=CC(=O)CCC4=C3[C@@H](c3ccc(-c4cccnc4)cc3)C[C@]2(C)C1C(C)=O (stereo partly drawn) [EC-342, 11β-{4′-[3′-pyridinyl)phenyl}-16α-ethyl-19-norpregna-4,9-diene-3,20-dione] | mesoprogestin | 0.86 | PR-domin | degenerated |  |  |  | 
